According to patent publication US20240391926A1, “SPIROINDOLINONE COMPOUNDS AS Kv1.3 POTASSIUM SHAKER CHANNEL BLOCKERS” (D.E. Shaw Research, LLC, priority 2021, published 2024):

Assays:
hERG channel = target: T1, hERG channel (Homo sapiens, UniProt Q12809); experiment: hERG electrophysiology, automated whole-cell patch clamp (Patchliner) in CHO-K1 cells stably expressing hERG; assay type: cell-based; conditions: 30 nM-100 μM
T1 construct: expressed in transfected cells
Method: This assay is used to evaluate the disclosed compounds' inhibition activities against the hERG channel.
CHO-K1 cells stably expressing hERG were grown in Ham's F-12 Medium with glutamine containing 10% heat-inactivated FBS, 1% penicillin/streptomycin, hygromycin (100 μg/ml) and G418 (100 μg/ml). Cells were grown in culture flasks at 37° C. in a 5% CO2-humidified incubator.
The cells were bathed in an extracellular solution containing 140 mM NaCl, 4 mM KCl, 2 mM CaCl2), 1 mM MgCl2, 5 mM Glucose, 10 mM HEPES; pH adjusted to 7.4 with NaOH; 295-305 mOsm. The internal solution contained 50 mM KCl, 10 mM NaCl, 60 mM KF, 20 mM EGTA, 10 mM HEPES; pH adjusted to 7.2 with KOH; 285 mOsm. All compounds were dissolved in DMSO at 30 mM. Compound stock solutions were freshly diluted with external solution to concentrations of 30 nM, 100 nM, 300 nM, 1 μM, 3 μM, 10 μM, 30 μM and 100 μM. The highest content of DMSO (0.3%) was present in 100 μM.
The voltage protocol (see Table B) was designed to simulate voltage changes during a cardiac action potential with a 300 ms depolarization to +20 mV (analogous to the plateau phase of the cardiac action potential), a repolarization for 300 ms to −50 mV (inducing a tail current) and a final step to the holding potential of −80 mV. The pulse frequency was 0.3 Hz. Control (compound-free) and compound pulse trains for each compound concentration applied contained 70 pulses.
Whole-cell current recordings and compound application were enabled by means of an automated patch clamp platform Patchliner (Nanion). EPC 10 patch clamp amplifier (HEKA) along with Patchmaster software (HEKA Elektronik Dr. Schulze GmbH) was used for data acquisition. Data were sampled at 10 kHz without filtering. Increasing compound concentrations were applied consecutively to the same cell without washouts in between.
AUC and PEAK values were obtained with Patchmaster (HEKA Elektronik Dr. Schulze GmbH). To determine IC50 the last single pulse in the pulse train corresponding to a given compound concentration was used. Obtained AUC and PEAK values in the presence of compound were normalized to control values in the absence of compound. Using Origin (OridinLab), IC50 was derived from data fit to Hill equation: Icompound/Icontrol=(100−A)/(1+([compound]/IC50)nH)+A, where IC50 is the concentration at which current inhibition is half-maximal, [compound] is the applied compound concentration, A is the fraction of current that is not blocked and nH is the Hill coefficient.

Kv1.3 potassium channel = target: T2, Kv1.3 potassium channel (Homo sapiens, UniProt P22001); experiment: Kv1.3 potassium channel blocker activity, automated whole-cell patch clamp (Patchliner) in CHO-K1 cells stably expressing Kv1.3; assay type: cell-based; conditions: 30 nM-100 μM
T2 construct: expressed in transfected cells
Summary of the method: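 Whole-cell automated patch clamp in CHO-K1 cells, pH 7.4 external/7.2 internal; 100 ms steps from −90 to +40 mV at 0.1 Hz, 20-pulse trains. Cumulative 30 nM–100 μM on one cell, ≤10 s per concentration; last-pulse current normalized to control, IC50 from Hill fit.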

T1 sequence (Q12809 whole entry): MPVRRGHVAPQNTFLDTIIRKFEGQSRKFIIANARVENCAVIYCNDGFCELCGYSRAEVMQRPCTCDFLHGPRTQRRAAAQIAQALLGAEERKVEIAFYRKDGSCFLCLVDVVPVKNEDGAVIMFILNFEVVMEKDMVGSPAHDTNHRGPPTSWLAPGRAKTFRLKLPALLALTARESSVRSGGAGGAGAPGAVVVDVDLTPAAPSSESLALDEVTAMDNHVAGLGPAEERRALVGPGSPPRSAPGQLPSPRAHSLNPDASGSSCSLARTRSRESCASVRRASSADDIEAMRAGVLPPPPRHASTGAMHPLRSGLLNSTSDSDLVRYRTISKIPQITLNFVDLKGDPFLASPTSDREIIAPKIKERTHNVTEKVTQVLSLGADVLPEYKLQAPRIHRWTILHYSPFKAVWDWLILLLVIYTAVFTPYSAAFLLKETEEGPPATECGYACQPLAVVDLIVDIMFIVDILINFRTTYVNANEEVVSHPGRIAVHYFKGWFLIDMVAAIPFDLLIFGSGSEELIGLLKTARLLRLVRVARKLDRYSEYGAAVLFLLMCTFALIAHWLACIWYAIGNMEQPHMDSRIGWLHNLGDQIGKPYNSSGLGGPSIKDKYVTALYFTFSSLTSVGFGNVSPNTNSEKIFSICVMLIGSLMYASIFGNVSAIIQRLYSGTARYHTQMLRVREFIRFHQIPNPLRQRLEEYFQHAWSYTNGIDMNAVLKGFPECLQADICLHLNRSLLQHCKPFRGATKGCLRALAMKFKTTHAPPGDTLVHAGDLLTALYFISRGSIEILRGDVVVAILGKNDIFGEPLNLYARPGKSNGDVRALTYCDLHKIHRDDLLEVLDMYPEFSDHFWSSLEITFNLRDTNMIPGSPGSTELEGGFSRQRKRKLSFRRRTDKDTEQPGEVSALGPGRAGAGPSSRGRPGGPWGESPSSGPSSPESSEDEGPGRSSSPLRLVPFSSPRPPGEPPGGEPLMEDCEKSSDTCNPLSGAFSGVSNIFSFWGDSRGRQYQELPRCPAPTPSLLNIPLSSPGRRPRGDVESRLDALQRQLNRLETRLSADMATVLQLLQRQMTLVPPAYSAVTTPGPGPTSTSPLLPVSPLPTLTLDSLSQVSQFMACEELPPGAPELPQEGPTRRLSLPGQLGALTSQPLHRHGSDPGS
T2 sequence (P22001 whole entry): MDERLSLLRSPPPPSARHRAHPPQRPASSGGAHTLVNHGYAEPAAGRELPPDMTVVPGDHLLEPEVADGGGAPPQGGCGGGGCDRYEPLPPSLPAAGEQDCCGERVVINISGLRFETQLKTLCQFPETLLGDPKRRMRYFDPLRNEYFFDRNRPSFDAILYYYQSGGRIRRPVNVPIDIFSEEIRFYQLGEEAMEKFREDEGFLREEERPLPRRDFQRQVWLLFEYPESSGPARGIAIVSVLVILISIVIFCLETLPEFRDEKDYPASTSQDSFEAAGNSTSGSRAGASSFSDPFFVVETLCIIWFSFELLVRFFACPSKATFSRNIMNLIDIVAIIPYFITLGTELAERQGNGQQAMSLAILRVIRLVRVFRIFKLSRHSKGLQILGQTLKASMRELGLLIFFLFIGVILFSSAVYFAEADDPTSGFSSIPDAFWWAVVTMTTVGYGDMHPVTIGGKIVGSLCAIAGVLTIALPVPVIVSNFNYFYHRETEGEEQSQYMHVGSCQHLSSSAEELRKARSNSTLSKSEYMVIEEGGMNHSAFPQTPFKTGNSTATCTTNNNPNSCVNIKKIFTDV

| Compound | IC50 (Kv1.3 potassium channel) [nM] | IC50 (hERG channel) [nM] |
| --- | --- | --- |
| C[C@H]1NCC[C@@H]1C(=O)N1CC[C@]2(C1)C(=O)Nc1cc(Cl)c(Cl)cc12 (relative stereo) [Compound 40, (S)-5,6-dichloro-1′-((2S,3R)-rel-2-methylpyrrolidine-3-carbonyl)spiro[indoline-3,3′-pyrrolidin]-2-one isomer 2] | < 300 | > 100000 |
| O=C([C@H]1CNC[C@H]1O)N1CC[C@]2(C1)C(=O)Nc1cc(Cl)c(Cl)cc12 (single isomer, unassigned) [Compound 2] | < 300 | > 100000 |
| O=C([C@@H]1CNC[C@H]1O)N1CC[C@]2(C1)C(=O)Nc1cc(Cl)c(Cl)cc12 (single isomer, unassigned) [Compound 3] | < 100 | > 100000 |
| O=C(C1CCN(CCO)C1)N1CC[C@]2(C1)C(=O)Nc1cc(Cl)c(Cl)cc12 (single isomer, unassigned; isomer 1) [Compound 37] | < 300 | > 100000 |
| O=C([C@H]1CC[C@H](O)C1)N1CC[C@]2(C1)C(=O)Nc1cc(Cl)c(Cl)cc12 (single isomer, unassigned; isomer 1) [Compound 63] | < 1000 | > 30000 |
| O=C(C1C[C@@H](O)[C@H](O)C1)N1CC[C@]2(C1)C(=O)Nc1cc(Cl)c(Cl)cc12 (single isomer, unassigned; isomer 1) [Compound 105] | < 300 | > 100000 |
| O=C([C@@H]1CC[C@@H](O)[C@H](O)C1)N1CC[C@]2(C1)C(=O)Nc1cc(Cl)c(Cl)cc12 (single isomer, unassigned; isomer 2) [Compound 104] | < 300 | > 100000 |
| NCC(=O)N1CC[C@]2(C1)C(=O)Nc1cc(Cl)c(Cl)cc12 [Compound 5, (S)-5,6-dichloro-1′-glycylspiro[indoline-3,3′-pyrrolidin]-2-one] | < 1000 | > 30000 |
| O=C(CO)N1CC[C@]2(C1)C(=O)Nc1cc(Cl)c(Cl)cc12 [Compound 6, (S)-5,6-dichloro-1′-(2-hydroxyacetyl)spiro[indoline-3,3′-pyrrolidin]-2-one] | < 1000 | > 100000 |
| O=C(C1CNC1)N1CC[C@]2(C1)C(=O)Nc1cc(Cl)c(Cl)cc12 [Compound 8, (S)-1′-(azetidine-3-carbonyl)-5,6-dichlorospiro[indoline-3,3′-pyrrolidin]-2-one] | < 1000 | > 100000 |
| C[C@@H](O)C(=O)N1CC[C@]2(C1)C(=O)Nc1cc(Cl)c(Cl)cc12 [Compound 13, (S)-5,6-dichloro-1′-((R)-2-hydroxypropanoyl)spiro[indoline-3,3′-pyrrolidin]-2-one] | < 1000 | > 100000 |
| O=C([C@@H]1CCNC1)N1CC[C@]2(C1)C(=O)Nc1cc(Cl)c(Cl)cc12 [Compound 14, (S)-5,6-dichloro-1′-((R)-pyrrolidine-3-carbonyl)spiro[indoline-3,3′-pyrrolidin]-2-one] | < 300 | > 100000 |
| O=C([C@@H]1CCCNC1)N1CC[C@]2(C1)C(=O)Nc1cc(Cl)c(Cl)cc12 [Compound 17, (S)-5,6-dichloro-1′-((R)-piperidine-3-carbonyl)spiro[indoline-3,3′-pyrrolidin]-2-one] | < 300 | > 100000 |
| O=C(C1CCNCC1)N1CC[C@]2(C1)C(=O)Nc1cc(Cl)c(Cl)cc12 [Compound 21, (S)-5,6-dichloro-1′-(piperidine-4-carbonyl)spiro[indoline-3,3′-pyrrolidin]-2-one] | < 1000 | > 100000 |
| COCC(=O)N1CC[C@]2(C1)C(=O)Nc1cc(Cl)c(Cl)cc12 [Compound 147, (S)-5,6-dichloro-1′-(2-methoxyacetyl)spiro[indoline-3,3′-pyrrolidin]-2-one] | < 1000 | – |
| O=C1Nc2cc(Cl)c(Cl)cc2[C@]12CCN(c1cnccn1)C2 [Compound 149, (S)-5,6-dichloro-1′-(pyrazin-2-yl)spiro[indoline-3,3′-pyrrolidin]-2-one] | < 3000 | – |
| O=C([C@H](O)CO)N1CC[C@]2(C1)C(=O)Nc1cc(Cl)c(Cl)cc12 [Compound 159, (S)-5,6-dichloro-1′-((R)-2,3-dihydroxypropanoyl)spiro[indoline-3,3′-pyrrolidin]-2-one] | < 3000 | – |

The next lines start with results.

| IC50 (Kv1.3 potassium channel) [nM] | Compound | IC50 (hERG channel) [nM] |
| --- | --- | --- |
| < 1000 | O=C([C@H]1CC[C@](O)(CO)C1)N1CC[C@]2(C1)C(=O)Nc1cc(Cl)c(Cl)cc12 (relative stereo) [Compound 95, (S)-5,6-dichloro-1′-((1R,3S)-rel-3-hydroxy-3-(hydroxymethyl)cyclopentane-1-carbonyl)spiro[indoline-3,3′-pyrrolidin]-2-one isomer 1] | > 100000 |
| < 1000 | O=C([C@H]1CC[C@@](O)(CO)C1)N1CC[C@]2(C1)C(=O)Nc1cc(Cl)c(Cl)cc12 (relative stereo) [Compound 97, (S)-5,6-dichloro-1′-((1R,3R)-rel-3-hydroxy-3-(hydroxymethyl)cyclopentane-1-carbonyl)spiro[indoline-3,3′-pyrrolidin]-2-one isomer 1] | > 100000 |
| < 300 | O=C(N1CC[C@]2(C1)C(=O)Nc1cc(Cl)c(Cl)cc12)C1(F)CCNC1 (single isomer, unassigned; isomer 1) [Compound 29] | > 3000 |
| < 300 | C[C@@H]1NCC[C@H]1C(=O)N1CC[C@]2(C1)C(=O)Nc1cc(Cl)c(Cl)cc12 (single isomer, unassigned; isomer 1) [Compound 39] | > 100000 |
| < 300 | O=C([C@@H]1CCN(CCO)C1)N1CC[C@]2(C1)C(=O)Nc1cc(Cl)c(Cl)cc12 (single isomer, unassigned; isomer 2) [Compound 38] | > 100000 |
| < 1000 | NCCC(=O)N1CC[C@]2(C1)C(=O)Nc1cc(Cl)c(Cl)cc12 [Compound 9, (S)-1′-(3-aminopropanoyl)-5,6-dichlorospiro[indoline-3,3′-pyrrolidin]-2-one] | > 100000 |
| < 1000 | O=C([C@H]1CCNC1)N1CC[C@]2(C1)C(=O)Nc1cc(Cl)c(Cl)cc12 [Compound 15, (S)-5,6-dichloro-1′-((S)-pyrrolidine-3-carbonyl)spiro[indoline-3,3′-pyrrolidin]-2-one] | > 100000 |
| < 1000 | Nc1cnc(N2CC[C@]3(C2)C(=O)Nc2cc(Cl)c(Cl)cc23)cn1 [Compound 144, (3S)-1′-(5-aminopyrazin-2-yl)-5,6-dichloro-1H-spiro[indole-3,3′-pyrrolidin]-2-one] | – |
| < 1000 | O=C1Nc2cc(Cl)c(Cl)cc2[C@]12CCN(c1c[nH]c(=O)cn1)C2 [Compound 145, (S)-5,6-dichloro-1′-(5-oxo-4,5-dihydropyrazin-2-yl)spiro[indoline-3,3′-pyrrolidin]-2-one] | – |
| < 3000 | O=C1Nc2cc(Cl)c(Cl)cc2[C@]12CCN(c1cn[nH]n1)C2 [Compound 146, (S)-5,6-dichloro-1′-(1H-1,2,3-triazol-4-yl)spiro[indoline-3,3′-pyrrolidin]-2-one] | – |
| < 3000 | Nc1cc(N2CC[C@]3(C2)C(=O)Nc2cc(Cl)c(Cl)cc23)ncn1 [Compound 148, (S)-1′-(6-aminopyrimidin-4-yl)-5,6-dichlorospiro[indoline-3,3′-pyrrolidin]-2-one] | – |
| < 1000 | CC(=O)N1CC[C@]2(C1)C(=O)Nc1cc(Cl)c(Cl)cc12 [Compound 152, (S)-1′-acetyl-5,6-dichlorospiro[indoline-3,3′-pyrrolidin]-2-one] | – |
| < 1000 | O=C(CCO)N1CC[C@]2(C1)C(=O)Nc1cc(Cl)c(Cl)cc12 [Compound 156, (S)-5,6-dichloro-1′-(3-hydroxypropanoyl)spiro[indoline-3,3′-pyrrolidin]-2-one] | – |
| < 1000 | O=C([C@@H](O)CO)N1CC[C@]2(C1)C(=O)Nc1cc(Cl)c(Cl)cc12 [Compound 157, (S)-5,6-dichloro-1′-((S)-2,3-dihydroxypropanoyl)spiro[indoline-3,3′-pyrrolidin]-2-one] | – |
| < 3000 | O=C(C1CC1O)N1CC[C@]2(C1)C(=O)Nc1cc(Cl)c(Cl)cc12 (stereo partly drawn) [Compound 158, (3S)-5,6-dichloro-1′-(2-hydroxycyclopropane-1-carbonyl)spiro[indoline-3,3′-pyrrolidin]-2-one] | – |
